Converted amounts (≈) assume the structure as drawn.
Key:
Format in all cases: functional
Klebsiella pneumoniae = test: Antibacterial activity against Klebsiella pneumonia assessed growth inhibition by micro broth dilution method
Escherichia coli [1] = test: Antibacterial activity against Escherichia coli assessed growth inhibition by micro broth dilution method
Staphylococcus aureus [2] = test: Antibacterial activity against methicillin-resistant Staphylococcus aureus assessed growth inhibition by micro broth dilution method
Enterococcus faecalis = test: Antibacterial activity against Enterococcus faecalis assessed growth inhibition by micro broth dilution method
Escherichia coli [3] = test: Antibacterial activity against Escherichia coli ATCC 25922 assessed growth inhibition by micro broth dilution method
Pseudomonas aeruginosa [4] = test: Antibacterial activity against Pseudomonas aeruginosa ATCC 27853 assessed growth inhibition by micro broth dilution method
Staphylococcus aureus [5] = test: Antibacterial activity against Staphylococcus aureus ATCC 29213 assessed growth inhibition by micro broth dilution method
Acinetobacter baumannii = test: Antibacterial activity against Acinetobacter baumannii assessed growth inhibition by micro broth dilution method
Pseudomonas aeruginosa [6] = test: Antibacterial activity against Pseudomonas aeruginosa assessed growth inhibition by micro broth dilution method
Staphylococcus aureus [7] = test: Antibacterial activity against Staphylococcus aureus assessed growth inhibition by micro broth dilution method
Staphylococcus aureus [8] = test: Antibacterial activity against Staphylococcus aureus ATCC 25923 assessed growth inhibition by micro broth dilution method

Structure (SMILES): CCOC(=O)c1cn(CC)c2c(F)c(F)c(F)cc2c1=O
- MIC (Klebsiella pneumoniae): 32 µg/mL (≈ 107 µM)
- MIC (Escherichia coli [1]): 8 µg/mL (≈ 26.7 µM)
- MIC (Staphylococcus aureus [2]): 128 µg/mL (≈ 428 µM)
- MIC (Enterococcus faecalis): 128 µg/mL (≈ 428 µM)
- MIC (Escherichia coli [3]): 64 µg/mL (≈ 214 µM)
- MIC (Pseudomonas aeruginosa [4]): 256 µg/mL (≈ 855 µM)
- MIC (Staphylococcus aureus [5]): 128 µg/mL (≈ 428 µM)
- MIC (Acinetobacter baumannii): 32 µg/mL (≈ 107 µM)
- MIC (Pseudomonas aeruginosa [6]): 32 µg/mL (≈ 107 µM)
- MIC (Staphylococcus aureus [7]): 32 µg/mL (≈ 107 µM)
- MIC (Staphylococcus aureus [8]): 64 µg/mL (≈ 214 µM)

Structure (SMILES): CCOC(=O)c1cn(Cc2ccccc2Cl)c2cc(F)c(F)cc2c1=O
- MIC (Klebsiella pneumoniae): 32 µg/mL (≈ 84.7 µM)
- MIC (Escherichia coli [1]): 2 µg/mL (≈ 5.29 µM)
- MIC (Staphylococcus aureus [2]): 256 µg/mL (≈ 678 µM)
- MIC (Enterococcus faecalis): 4 µg/mL (≈ 10.6 µM)
- MIC (Escherichia coli [3]): 128 µg/mL (≈ 339 µM)
- MIC (Pseudomonas aeruginosa [4]): 256 µg/mL (≈ 678 µM)
- MIC (Staphylococcus aureus [5]): 256 µg/mL (≈ 678 µM)
- MIC (Acinetobacter baumannii): 32 µg/mL (≈ 84.7 µM)
- MIC (Pseudomonas aeruginosa [6]): 256 µg/mL (≈ 678 µM)
- MIC (Staphylococcus aureus [7]): 128 µg/mL (≈ 339 µM)
- MIC (Staphylococcus aureus [8]): 256 µg/mL (≈ 678 µM)

Structure (SMILES): CCOC(=O)c1cn(CC(=O)N2CCN(C(=O)OC(C)(C)C)CC2)c2cc([C-](C#N)C(=O)OCC)c(F)cc2c1=O.[Na+] (centres undefined)
- MIC (Klebsiella pneumoniae): 128 µg/mL
- MIC (Escherichia coli [1]): 16 µg/mL
- MIC (Staphylococcus aureus [2]): 32 µg/mL
- MIC (Enterococcus faecalis): 64 µg/mL
- MIC (Escherichia coli [3]): 16 µg/mL
- MIC (Pseudomonas aeruginosa [4]): 4 µg/mL
- MIC (Staphylococcus aureus [5]): 32 µg/mL
- MIC (Acinetobacter baumannii): 32 µg/mL
- MIC (Pseudomonas aeruginosa [6]): 64 µg/mL
- MIC (Staphylococcus aureus [7]): 256 µg/mL
- MIC (Staphylococcus aureus [8]): 16 µg/mL

Structure (SMILES): CCCn1cc(C(=O)OCC)c(=O)c2cc(F)c(F)cc21
- MIC (Klebsiella pneumoniae): 64 µg/mL (≈ 217 µM)
- MIC (Escherichia coli [1]): 32 µg/mL (≈ 108 µM)
- MIC (Staphylococcus aureus [2]): 256 µg/mL (≈ 867 µM)
- MIC (Enterococcus faecalis): 256 µg/mL (≈ 867 µM)
- MIC (Escherichia coli [3]): 128 µg/mL (≈ 433 µM)
- MIC (Pseudomonas aeruginosa [4]): 256 µg/mL (≈ 867 µM)
- MIC (Staphylococcus aureus [5]): 128 µg/mL (≈ 433 µM)
- MIC (Acinetobacter baumannii): 256 µg/mL (≈ 867 µM)
- MIC (Pseudomonas aeruginosa [6]): 128 µg/mL (≈ 433 µM)
- MIC (Staphylococcus aureus [7]): 64 µg/mL (≈ 217 µM)
- MIC (Staphylococcus aureus [8]): 256 µg/mL (≈ 867 µM)

Structure (SMILES): CCOC(=O)c1cn(CC2CCCC2)c2cc([C-](C#N)C(=O)OCC)c(F)cc2c1=O.[Na+] (centres undefined)
- MIC (Klebsiella pneumoniae): 8 µg/mL
- MIC (Escherichia coli [1]): 128 µg/mL
- MIC (Staphylococcus aureus [2]): 16 µg/mL
- MIC (Enterococcus faecalis): 2 µg/mL
- MIC (Escherichia coli [3]): 2 µg/mL
- MIC (Pseudomonas aeruginosa [4]): 8 µg/mL
- MIC (Staphylococcus aureus [5]): 4 µg/mL
- MIC (Acinetobacter baumannii): 4 µg/mL
- MIC (Pseudomonas aeruginosa [6]): 8 µg/mL
- MIC (Staphylococcus aureus [7]): 16 µg/mL
- MIC (Staphylococcus aureus [8]): 8 µg/mL

Structure (SMILES): CCOC(=O)C(C#N)c1c(F)cc2c(=O)c(C(=O)O)cn3c2c1OC[C@@H]3C (some centres undefined)
- MIC (Klebsiella pneumoniae): 8 µg/mL (≈ 21.4 µM)
- MIC (Escherichia coli [1]): 32 µg/mL (≈ 85.5 µM)
- MIC (Staphylococcus aureus [2]): 4 µg/mL (≈ 10.7 µM)
- MIC (Enterococcus faecalis): 128 µg/mL (≈ 342 µM)
- MIC (Escherichia coli [3]): 1 µg/mL (≈ 2.67 µM)
- MIC (Pseudomonas aeruginosa [4]): 8 µg/mL (≈ 21.4 µM)
- MIC (Staphylococcus aureus [5]): 4 µg/mL (≈ 10.7 µM)
- MIC (Acinetobacter baumannii): 1 µg/mL (≈ 2.67 µM)
- MIC (Pseudomonas aeruginosa [6]): 16 µg/mL (≈ 42.7 µM)
- MIC (Staphylococcus aureus [7]): 4 µg/mL (≈ 10.7 µM)
- MIC (Staphylococcus aureus [8]): 32 µg/mL (≈ 85.5 µM)

Structure (SMILES): C=CCn1cc(C(=O)OCC)c(=O)c2cc(F)c(F)cc21
- MIC (Klebsiella pneumoniae): 32 µg/mL (≈ 109 µM)
- MIC (Escherichia coli [1]): 8 µg/mL (≈ 27.3 µM)
- MIC (Staphylococcus aureus [2]): 256 µg/mL (≈ 873 µM)
- MIC (Enterococcus faecalis): 128 µg/mL (≈ 436 µM)
- MIC (Escherichia coli [3]): 64 µg/mL (≈ 218 µM)
- MIC (Pseudomonas aeruginosa [4]): 256 µg/mL (≈ 873 µM)
- MIC (Staphylococcus aureus [5]): 128 µg/mL (≈ 436 µM)
- MIC (Acinetobacter baumannii): 256 µg/mL (≈ 873 µM)
- MIC (Pseudomonas aeruginosa [6]): 64 µg/mL (≈ 218 µM)
- MIC (Staphylococcus aureus [7]): 128 µg/mL (≈ 436 µM)
- MIC (Staphylococcus aureus [8]): 64 µg/mL (≈ 218 µM)

Structure (SMILES): CCOC(=O)c1cn(CCN2CCOCC2)c2cc(F)c(F)cc2c1=O
- MIC (Klebsiella pneumoniae): 256 µg/mL (≈ 699 µM)
- MIC (Escherichia coli [1]): 2 µg/mL (≈ 5.46 µM)
- MIC (Staphylococcus aureus [2]): 256 µg/mL (≈ 699 µM)
- MIC (Enterococcus faecalis): 128 µg/mL (≈ 349 µM)
- MIC (Escherichia coli [3]): 128 µg/mL (≈ 349 µM)
- MIC (Pseudomonas aeruginosa [4]): 128 µg/mL (≈ 349 µM)
- MIC (Staphylococcus aureus [5]): 256 µg/mL (≈ 699 µM)
- MIC (Acinetobacter baumannii): 2 µg/mL (≈ 5.46 µM)
- MIC (Pseudomonas aeruginosa [6]): 128 µg/mL (≈ 349 µM)
- MIC (Staphylococcus aureus [7]): 64 µg/mL (≈ 175 µM)
- MIC (Staphylococcus aureus [8]): 256 µg/mL (≈ 699 µM)

Structure (SMILES): CCOC(=O)c1cn(CC(=O)N2CCCCC2)c2cc([C-](C#N)C(=O)OCC)c(F)cc2c1=O.[Na+] (centres undefined)
- MIC (Klebsiella pneumoniae): 256 µg/mL
- MIC (Escherichia coli [1]): 32 µg/mL
- MIC (Staphylococcus aureus [2]): 32 µg/mL
- MIC (Enterococcus faecalis): 64 µg/mL
- MIC (Escherichia coli [3]): 64 µg/mL
- MIC (Pseudomonas aeruginosa [4]): 16 µg/mL
- MIC (Staphylococcus aureus [5]): 8 µg/mL
- MIC (Acinetobacter baumannii): 16 µg/mL
- MIC (Pseudomonas aeruginosa [6]): 128 µg/mL
- MIC (Staphylococcus aureus [7]): 256 µg/mL
- MIC (Staphylococcus aureus [8]): 64 µg/mL

Structure (SMILES): CCOC(=O)c1cn(Cc2ccccc2Cl)c2cc([C-](C#N)C(=O)OCC)c(F)cc2c1=O.[Na+] (centres undefined)
- MIC (Klebsiella pneumoniae): 4 µg/mL
- MIC (Escherichia coli [1]): 0.25 µg/mL
- MIC (Staphylococcus aureus [2]): 64 µg/mL
- MIC (Enterococcus faecalis): 1 µg/mL
- MIC (Escherichia coli [3]): 2 µg/mL
- MIC (Pseudomonas aeruginosa [4]): 2 µg/mL
- MIC (Staphylococcus aureus [5]): 2 µg/mL
- MIC (Acinetobacter baumannii): 32 µg/mL
- MIC (Pseudomonas aeruginosa [6]): 16 µg/mL
- MIC (Staphylococcus aureus [7]): 256 µg/mL
- MIC (Staphylococcus aureus [8]): 0.5 µg/mL

Structure (SMILES): CCOC(=O)c1cn(CC2CCCC2)c2cc(F)c(F)cc2c1=O
- MIC (Klebsiella pneumoniae): 32 µg/mL (≈ 95.4 µM)
- MIC (Escherichia coli [1]): 8 µg/mL (≈ 23.9 µM)
- MIC (Staphylococcus aureus [2]): 256 µg/mL (≈ 763 µM)
- MIC (Enterococcus faecalis): 256 µg/mL (≈ 763 µM)
- MIC (Escherichia coli [3]): 128 µg/mL (≈ 382 µM)
- MIC (Pseudomonas aeruginosa [4]): 256 µg/mL (≈ 763 µM)
- MIC (Staphylococcus aureus [5]): 128 µg/mL (≈ 382 µM)
- MIC (Acinetobacter baumannii): 256 µg/mL (≈ 763 µM)
- MIC (Pseudomonas aeruginosa [6]): 128 µg/mL (≈ 382 µM)
- MIC (Staphylococcus aureus [7]): 64 µg/mL (≈ 191 µM)
- MIC (Staphylococcus aureus [8]): 16 µg/mL (≈ 47.7 µM)

Structure (SMILES): CCOC(=O)c1cn(Cc2ccc([N+](=O)[O-])cc2)c2cc(C(C#N)C(=O)OCC)c(F)cc2c1=O.[Na+] (centres undefined)
- MIC (Klebsiella pneumoniae): 128 µg/mL
- MIC (Escherichia coli [1]): 0.5 µg/mL
- MIC (Staphylococcus aureus [2]): 256 µg/mL
- MIC (Enterococcus faecalis): 32 µg/mL
- MIC (Escherichia coli [3]): 128 µg/mL
- MIC (Pseudomonas aeruginosa [4]): 64 µg/mL
- MIC (Staphylococcus aureus [5]): 64 µg/mL
- MIC (Acinetobacter baumannii): 128 µg/mL
- MIC (Pseudomonas aeruginosa [6]): 128 µg/mL
- MIC (Staphylococcus aureus [7]): 128 µg/mL
- MIC (Staphylococcus aureus [8]): 1 µg/mL

Structure (SMILES): C#CCn1cc(C(=O)OCC)c(=O)c2cc(F)c([C-](C#N)C(=O)OCC)cc21.[Na+] (centres undefined)
- MIC (Klebsiella pneumoniae): 16 µg/mL
- MIC (Escherichia coli [1]): 16 µg/mL
- MIC (Staphylococcus aureus [2]): 64 µg/mL
- MIC (Enterococcus faecalis): 32 µg/mL
- MIC (Escherichia coli [3]): 8 µg/mL
- MIC (Pseudomonas aeruginosa [4]): 8 µg/mL
- MIC (Staphylococcus aureus [5]): 16 µg/mL
- MIC (Acinetobacter baumannii): 16 µg/mL
- MIC (Pseudomonas aeruginosa [6]): 32 µg/mL
- MIC (Staphylococcus aureus [7]): 64 µg/mL
- MIC (Staphylococcus aureus [8]): 2 µg/mL

Structure (SMILES): CCOC(=O)c1cn(Cc2cnc(Cl)s2)c2cc(F)c(F)cc2c1=O
- MIC (Klebsiella pneumoniae): 64 µg/mL (≈ 166 µM)
- MIC (Escherichia coli [1]): 8 µg/mL (≈ 20.8 µM)
- MIC (Staphylococcus aureus [2]): 32 µg/mL (≈ 83.2 µM)
- MIC (Enterococcus faecalis): 32 µg/mL (≈ 83.2 µM)
- MIC (Escherichia coli [3]): 32 µg/mL (≈ 83.2 µM)
- MIC (Pseudomonas aeruginosa [4]): 16 µg/mL (≈ 41.6 µM)
- MIC (Staphylococcus aureus [5]): 32 µg/mL (≈ 83.2 µM)
- MIC (Acinetobacter baumannii): 32 µg/mL (≈ 83.2 µM)
- MIC (Pseudomonas aeruginosa [6]): 64 µg/mL (≈ 166 µM)
- MIC (Staphylococcus aureus [7]): 256 µg/mL (≈ 665 µM)
- MIC (Staphylococcus aureus [8]): 4 µg/mL (≈ 10.4 µM)

From ChEMBL document CHEMBL5528028, “Discovery of benzopyridone cyanoacetates as new type of potential broad-spectrum antibacterial candidates” (Eur J Med Chem, 2024)
